Source: paper PMC7198601, “Side chain effect in the modulation of αvβ3/α5β1 integrin activity via clickable isoxazoline-RGD-mimetics: development of molecular delivery systems” (Scientific Reports, 2020)
Read-outs that look alike come from different tables or passages of the source.

Assays:
α5β1 integrin [1] = biological target: T1, α5β1 integrin (Homo sapiens, UniProt P05556+P08648); test: Cell adhesion assay: K562 cells to immobilized fibronectin (α5β1 integrin-mediated); settings: for α5β1 behaviour (agonist/antagonist): K562 cell adhesion to fibronectin
Method: (§1) The ability of the synthesized racemic ligands to inhibit the adhesion of K562 cells (human erythroleukemic cells, expressing α5β1 integrin) or SK-MEL-24 cells (human malignant melanoma cells, expressing αvβ3 integrin) to immobilized fibronectin was evaluated[29]. […] In these experiments, the cells were seeded onto plates coated with fibronectin and allowed to adhere before quantitation of the number of adherent cells, in presence of increasing concentrations of the compounds.
(§2) SK-MEL-24 (American Tissue Culture Collection, ATCC, Rockville, MD) were routinely grown in minimum essential medium (MEM, Cambrex, Walkersville, MD) supplemented with 10% fetal bovine serum (FBS), nonessential amino acids, and sodium pyruvate. K-562 (ATCC, Rockville, MD) were maintained as a stationary suspension culture in RPMI-1640 and L-glutamine with 10% FBS (Invitrogen (Carlsbad, CA). Cells were kept at 37 °C in a 5% CO2 humidified atmosphere. Forty hours before experiments, K-562 were treated with 25 ng/mL PMA (Sigma-Aldrich SRL, Milan, Italy) to induce differentiation and to increase expression of cell surface antigens[50].
(§3) Plates (96 wells) (Corning Costar, Celbio, Milan,Italy) were coated by passive adsorption with fibronectin (10 µg/mL) or poly-L-lysine (0.002%) (Sigma-Aldrich SRL) overnight at 4 °C. Cells were counted with a haemocytometer and pre-incubated with different concentrations of each compound or with the vehicle (methanol) for 30 min at room temperature to reach a ligand-receptor equilibrium. Stock solutions (10^–2 M) of the assayed compounds were prepared in phosphate-buffered saline (PBS). […] This product is a chromogenic substrate for β-N-acetylglucosaminidase that is transformed in 4-nitrophenol whose absorbance can be measured at 405 nm. As previously described[51], there is a linear correlation between absorbance and enzymatic activity. Therefore, it is possible to identify the number of adherent cells among treated wells, interpolating the absorbance values of unknowns in a calibration curve. The reaction was blocked by addition of 100 µL of a stopping solution [50 µM glycine and 5 µM EDTA (pH 10.4)], and the plates were read in an EnSpire Multimode Plate Reader (PerkinElmer, Waltham, MA, USA). Experiments were carried out in quadruplicate and repeated at least three times. Data analysis and IC50/EC50 values were calculated using Graph-Pad Prism 5.0 (GraphPad Software, San Diego, CA).

αvβ3 integrin [2] = biological target: T2, αvβ3 integrin (Homo sapiens, UniProt P05106+P06756); test: Cell adhesion assay: SK-MEL-24 cells to immobilized fibronectin (αvβ3 integrin-mediated); settings: for αvβ3 behaviour (agonist/antagonist): SK-MEL-24 cell adhesion to fibronectin
Method: as §1, §2, §3

[3] = system: α5β1 integrin-mediated phosphorylation of ERK1/2; test: α5β1 integrin-mediated ERK1/2 phosphorylation in K562 cells (Western blot); assay type: cell-based, human; settings: K562 cells not incubated with fibronectin, compound 10^−7–10^−9 M
Method: The mechanism by which components of extracellular matrix generate intracellular signalling through integrins requires indeed an increased phosphorylation of cytoplasmatic second messengers. Phosphorylation of ERK1/2 plays a central role in fibronectin-mediated survival signalling through integrins: in fact, cell adhesion activates ERK1/2 by binding of α5β1 integrins at the cell surface to extracellular matrix proteins such as fibronectin. The experiment was performed by serum-starving K562 cells in RPMI-1640 containing 1% FBS for 16 h; thereafter, they were preincubated with compound 17b, 24 (10^−7–10^−9 M) or the vehicle for 60 minutes and then plated for 60 minutes on fibronectin.
Figure 2 (a) Cropped blots related to the effect of compounds 17b and 24 on α5β1 integrin-mediated phosphorylation of ERK1/2 in K562 cells. Cells were serum-starved in RPMI-1640 containing 1% FBS for 16 h; then cells were preincubated with different concentrations of the antagonist 17b (10^−7–10^−9 M) or its vehicle for 1 h in suspension and then were allowed to adhere for 1 h on fibronectin (FN). […] Thereafter cells were lysed and lysates were analysed in Western blot using an antibody directed against phosphorylated ERK1/2 (pERK1/2) or total ERK1/2 (totERK1/2). […]
K562 cells were incubated in RPMI-1640 with 1% FBS for 16 h. […] Digital images were acquired and analyzed following previously reported methods.

α5β1 integrin [4] = biological target: T1, α5β1 integrin; test: α5β1 integrin internalization by confocal microscopy in HEK293 + α5-EGFP cells; assay type: cell-based; settings: compound 1 µM, no fibronectin
Excerpt: Integrin trafficking is an important mechanism employed by cells to regulate integrin–extracellular matrix interactions, and thus cellular signalling, during processes such as cell migration and invasion. α5β1 integrin is internalized, trafficked to recycling endosomes and then recycled to the plasma membrane[43],[44]. Membrane trafficking pathways influence α5β1’s ability to promote invasion and metastasis[45],[46]. […]
HEK293 cells (not expressing α5 but endogenously expressing β1 integrin[47],[48] were plated in 6 well plates and at 50–60% confluence were transiently transfected with α5-EGFP plasmid using Lipofectamine2000 transfection reagent (LifeTechnologies). After 48 h from transfection, HEK293 + α5-EGFP cells were assessed to verify integrins expression by flow cytometry (data not shown). α5-EGFP integrin plasmid was a kind gift from Michael Davidson (Addgene plasmid #56423). HEK293 + α5-EGFP cells were treated at 4 °C with fibronectin (10 µg/ml) or the agonist 24 (1 µM) in MEM for 1 hour. Cells exposed to the antagonist 17b (1 µM), before the addition of fibronectin, were pre-incubated with the compound for 20 minutes at 4 °C. […]
Specimens were embedded in Mowiol and analyzed using a Nikon C1s confocal laser-scanning microscope, equipped with a Nikon PlanApo 60×, 1.4-NA oil immersion lens. […]

αvβ3 integrin [5] = biological target: T2, αvβ3 integrin; parameters: SK-MEL-24 cells (human malignant melanoma cells, expressing αvβ3 integrin); endogenous in cells; host or cells: SK-MEL-24 (ATCC); settings: cited from earlier work; for IC50: cell adhesion assay, Figure 1, ref ChemMedChem 2011, 6, 2264–2272; for αvβ3 behaviour (agonist/antagonist): reference compounds, entries 11-19, Dechantsreiter et al. (table footnotes b-h)
α5β1 integrin [6] = biological target: T1, α5β1 integrin; parameters: K562 cells (human erythroleukemic cells, expressing α5β1 integrin); endogenous in cells; host or cells: K-562 (ATCC), treated with PMA 40 h before the experiments; settings: cited from earlier work; for IC50: cell adhesion assay, Figure 1, ref ChemMedChem 2011, 6, 2264–2272; for α5β1 behaviour (agonist/antagonist): reference compounds, entries 11-17, 41 (table footnotes b-f)

T1 sequence (P08648 42-894 limits assumed): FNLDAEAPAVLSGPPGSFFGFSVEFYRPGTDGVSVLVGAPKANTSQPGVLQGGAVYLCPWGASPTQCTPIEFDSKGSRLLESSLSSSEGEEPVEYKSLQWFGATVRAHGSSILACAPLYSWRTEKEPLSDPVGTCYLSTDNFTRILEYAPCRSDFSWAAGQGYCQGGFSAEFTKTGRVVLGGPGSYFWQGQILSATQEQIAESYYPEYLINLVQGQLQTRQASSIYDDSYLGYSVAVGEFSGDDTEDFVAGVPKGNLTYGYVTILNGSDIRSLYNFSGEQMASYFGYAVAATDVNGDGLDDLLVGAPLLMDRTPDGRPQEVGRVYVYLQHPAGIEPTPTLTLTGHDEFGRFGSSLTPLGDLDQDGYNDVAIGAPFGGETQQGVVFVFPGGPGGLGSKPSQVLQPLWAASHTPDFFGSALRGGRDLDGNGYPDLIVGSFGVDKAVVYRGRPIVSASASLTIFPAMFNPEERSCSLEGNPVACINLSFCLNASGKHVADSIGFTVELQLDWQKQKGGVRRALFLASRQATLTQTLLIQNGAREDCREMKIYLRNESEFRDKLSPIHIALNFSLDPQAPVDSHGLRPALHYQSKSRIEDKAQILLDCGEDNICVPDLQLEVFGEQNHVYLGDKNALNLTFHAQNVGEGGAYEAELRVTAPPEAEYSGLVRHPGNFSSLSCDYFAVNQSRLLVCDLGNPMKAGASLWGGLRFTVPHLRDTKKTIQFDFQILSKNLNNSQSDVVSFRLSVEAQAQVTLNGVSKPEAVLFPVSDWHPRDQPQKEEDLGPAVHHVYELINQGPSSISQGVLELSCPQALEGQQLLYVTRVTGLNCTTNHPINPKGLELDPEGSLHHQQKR
T1 sequence (P08648 895-1049 partner limits assumed): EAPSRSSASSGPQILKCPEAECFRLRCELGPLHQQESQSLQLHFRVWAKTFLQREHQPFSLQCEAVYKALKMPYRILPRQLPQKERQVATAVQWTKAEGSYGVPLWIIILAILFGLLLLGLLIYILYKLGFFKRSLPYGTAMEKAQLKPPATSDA
T1 sequence (P05556 21-798): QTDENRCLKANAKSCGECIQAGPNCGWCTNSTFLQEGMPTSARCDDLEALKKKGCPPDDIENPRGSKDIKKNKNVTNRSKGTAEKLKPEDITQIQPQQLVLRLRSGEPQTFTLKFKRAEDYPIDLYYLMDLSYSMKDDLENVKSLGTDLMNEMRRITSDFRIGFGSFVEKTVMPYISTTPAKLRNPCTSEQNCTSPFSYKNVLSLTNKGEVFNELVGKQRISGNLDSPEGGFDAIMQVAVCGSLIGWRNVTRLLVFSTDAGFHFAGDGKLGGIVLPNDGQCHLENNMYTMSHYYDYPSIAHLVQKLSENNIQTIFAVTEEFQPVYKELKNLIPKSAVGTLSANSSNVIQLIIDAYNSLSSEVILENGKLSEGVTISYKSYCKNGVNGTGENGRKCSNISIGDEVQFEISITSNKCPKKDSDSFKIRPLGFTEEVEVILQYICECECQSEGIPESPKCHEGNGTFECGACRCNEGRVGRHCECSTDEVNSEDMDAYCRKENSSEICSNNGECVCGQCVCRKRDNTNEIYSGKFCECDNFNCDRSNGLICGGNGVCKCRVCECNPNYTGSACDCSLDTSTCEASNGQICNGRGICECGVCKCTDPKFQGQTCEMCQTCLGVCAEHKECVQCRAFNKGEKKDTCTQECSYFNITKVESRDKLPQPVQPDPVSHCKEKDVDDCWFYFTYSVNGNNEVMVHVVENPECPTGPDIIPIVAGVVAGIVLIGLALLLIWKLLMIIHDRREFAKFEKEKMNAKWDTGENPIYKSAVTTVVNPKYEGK
T2 sequence (P06756 31-889 limits assumed): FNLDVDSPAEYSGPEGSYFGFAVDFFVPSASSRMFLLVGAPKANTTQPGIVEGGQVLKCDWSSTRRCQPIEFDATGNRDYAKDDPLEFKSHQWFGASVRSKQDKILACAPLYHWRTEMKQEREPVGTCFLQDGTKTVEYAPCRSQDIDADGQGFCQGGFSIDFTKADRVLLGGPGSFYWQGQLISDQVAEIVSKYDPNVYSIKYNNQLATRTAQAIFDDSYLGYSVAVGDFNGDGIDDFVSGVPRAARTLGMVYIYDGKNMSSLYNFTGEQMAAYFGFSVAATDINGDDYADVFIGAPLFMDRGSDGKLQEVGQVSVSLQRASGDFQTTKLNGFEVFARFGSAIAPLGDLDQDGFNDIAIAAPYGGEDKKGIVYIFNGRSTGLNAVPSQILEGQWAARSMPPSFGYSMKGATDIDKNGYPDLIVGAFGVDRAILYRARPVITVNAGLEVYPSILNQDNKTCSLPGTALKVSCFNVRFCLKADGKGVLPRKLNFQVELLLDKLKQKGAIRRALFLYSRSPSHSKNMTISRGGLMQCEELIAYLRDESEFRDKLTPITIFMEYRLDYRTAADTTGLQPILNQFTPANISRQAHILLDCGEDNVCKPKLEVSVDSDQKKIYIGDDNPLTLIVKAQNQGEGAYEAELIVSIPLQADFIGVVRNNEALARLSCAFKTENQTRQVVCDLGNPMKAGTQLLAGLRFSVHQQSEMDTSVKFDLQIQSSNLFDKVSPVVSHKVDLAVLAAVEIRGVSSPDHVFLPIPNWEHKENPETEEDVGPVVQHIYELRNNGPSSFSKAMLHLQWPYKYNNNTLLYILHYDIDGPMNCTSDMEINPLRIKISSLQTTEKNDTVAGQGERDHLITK
T2 sequence (P06756 891-1048 partner limits assumed): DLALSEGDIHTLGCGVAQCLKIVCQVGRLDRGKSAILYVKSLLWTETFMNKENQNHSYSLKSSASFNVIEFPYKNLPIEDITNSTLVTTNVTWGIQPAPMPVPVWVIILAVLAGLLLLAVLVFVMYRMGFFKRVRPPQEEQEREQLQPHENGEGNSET
T2 sequence (P05106 27-788): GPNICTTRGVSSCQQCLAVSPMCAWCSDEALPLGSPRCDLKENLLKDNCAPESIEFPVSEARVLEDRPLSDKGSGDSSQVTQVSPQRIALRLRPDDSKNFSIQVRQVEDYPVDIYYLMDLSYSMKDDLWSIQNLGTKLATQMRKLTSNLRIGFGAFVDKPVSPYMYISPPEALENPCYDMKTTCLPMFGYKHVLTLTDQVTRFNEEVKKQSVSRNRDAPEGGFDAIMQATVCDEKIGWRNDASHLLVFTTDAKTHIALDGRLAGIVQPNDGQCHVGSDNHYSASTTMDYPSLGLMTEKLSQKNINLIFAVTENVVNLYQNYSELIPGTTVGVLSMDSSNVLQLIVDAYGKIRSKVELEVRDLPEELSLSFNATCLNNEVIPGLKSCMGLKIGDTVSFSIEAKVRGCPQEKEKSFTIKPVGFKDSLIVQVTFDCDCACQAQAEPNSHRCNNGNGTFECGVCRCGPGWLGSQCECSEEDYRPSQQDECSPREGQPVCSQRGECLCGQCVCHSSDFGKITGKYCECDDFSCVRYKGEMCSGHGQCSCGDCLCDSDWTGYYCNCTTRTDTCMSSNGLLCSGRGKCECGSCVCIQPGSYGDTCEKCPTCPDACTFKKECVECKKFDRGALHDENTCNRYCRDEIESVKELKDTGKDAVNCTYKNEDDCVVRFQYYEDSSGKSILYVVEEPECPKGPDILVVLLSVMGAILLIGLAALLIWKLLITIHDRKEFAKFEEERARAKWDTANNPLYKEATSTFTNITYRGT

Compound: C#CCCCC1C(C(=O)NCc2ccc(N)cc2)=C(C)ON1C(=O)CC(=O)O (centres unmarked) [Compound 8]
- IC50 (α5β1 integrin [1]): > 1000 µM
- EC50 (αvβ3 integrin [2]): 0.83 ± 0.05 µM
- αvβ3 behaviour (agonist/antagonist) (αvβ3 integrin [2]): agonist

Compound: CC1=C(C(=O)NCc2ccc(N)cc2)C(CCCc2cn(CCNC(=O)OC(C)(C)C)nn2)N(C(=O)CC(=O)O)O1 (centres unmarked) [Compound 17a]
- IC50 (α5β1 integrin [1]): 0.28 ± 0.03 µM
- α5β1 behaviour (agonist/antagonist) (α5β1 integrin [1]): antagonist
- IC50 (αvβ3 integrin [2]): 0.88 ± 0.07 µM
- αvβ3 behaviour (agonist/antagonist) (αvβ3 integrin [2]): antagonist

Compound: CC1=C(C(=O)NCc2ccc(N)cc2)C(CCCc2cn(CC(=O)OC(C)(C)C)nn2)N(C(=O)CC(=O)O)O1 (centres unmarked) [Compound 20a]
- IC50 (α5β1 integrin [1]): > 1000 µM
- EC50 (αvβ3 integrin [2]): 0.23 ± 0.08 µM
- αvβ3 behaviour (agonist/antagonist) (αvβ3 integrin [2]): agonist

Compound: CC1=C(C(=O)NCc2ccc(N)cc2)C(CCCc2cn(CCC(=O)OC(C)(C)C)nn2)N(C(=O)CC(=O)O)O1 (centres unmarked) [Compound 20b]
- IC50 (α5β1 integrin [1]): > 1000 µM
- EC50 (αvβ3 integrin [2]): 0.068 ± 0.011 µM
- αvβ3 behaviour (agonist/antagonist) (αvβ3 integrin [2]): agonist

Compound: CC1=C(C(=O)NCc2ccc(N)cc2)C(CCCc2cn(CCCNC(=O)CCC(=O)OC(C)(C)C)nn2)N(C(=O)CC(=O)O)O1 (centres unmarked) [Compound 24]
- ERK1/2-phosphorylation [3]: significant concentration dependent increase
- EC50 (α5β1 integrin [1]): 6.59 ± 0.16 µM
- α5β1 behaviour (agonist/antagonist) (α5β1 integrin [1]): agonist
- IC50 (αvβ3 integrin [2]): > 1000 µM
- α5β1 integrin internalization by compound alone (α5β1 integrin [4]): induced α5β1 internalization

Compound: CCOC(=O)CCCCn1cc(CCCC2C(C(=O)NCc3ccc(N)cc3)=C(C)ON2C(=O)CC(=O)O)nn1 (centres unmarked) [Compound 26]
- IC50 (α5β1 integrin [1]): > 1000 µM
- EC50 (αvβ3 integrin [2]): 0.61 ± 0.08 µM
- αvβ3 behaviour (agonist/antagonist) (αvβ3 integrin [2]): agonist

Compound: CC1=C(C(=O)NCc2ccc(N)cc2)C(CCCc2cn(CCOCCOCCNC(=O)OC(C)(C)C)nn2)N(C(=O)CC(=O)O)O1 (centres unmarked) [Compound 28]
- IC50 (α5β1 integrin [1]): > 1000 µM
- IC50 (αvβ3 integrin [2]): 8.84 ± 0.14 µM
- αvβ3 behaviour (agonist/antagonist) (αvβ3 integrin [2]): antagonist

Compound: CCOC(=O)COCCOCCn1cc(CCCC2C(C(=O)NCc3ccc(N)cc3)=C(C)ON2C(=O)CC(=O)O)nn1 (centres unmarked) [Compound 30]
- IC50 (α5β1 integrin [1]): > 1000 µM
- IC50 (αvβ3 integrin [2]): > 1000 µM

Compound: CC1=C(C(=O)NCc2ccc(N)cc2)C(C)N(C(=O)CC(=O)O)O1 (centres unmarked) [Ref A]
- IC50 (αvβ3 integrin [5]): 0.032 ± 0.003 µM
- αvβ3 IC50/EC50 (IC50 for antagonists) (αvβ3 integrin [5]; cell adhesion to fibronectin): 0.032 ± 0.003 µM
- αvβ3 behaviour (agonist/antagonist) (αvβ3 integrin [5]): antagonist
- IC50 (α5β1 integrin [6]): 0.012 ± 0.004 µM
- α5β1 IC50/EC50 (IC50 for antagonists) (α5β1 integrin [6]; cell adhesion to fibronectin): 0.012 ± 0.004 µM
- α5β1 behaviour (agonist/antagonist) (α5β1 integrin [6]): antagonist

Compound: CC1=C(C(=O)NCc2ccc(N)cc2)C(C(C)C)N(C(=O)CC(=O)O)O1 (centres unmarked) [Ref B]
- IC50 (αvβ3 integrin [5]): 0.0088 ± 0.0006 µM
- αvβ3 IC50/EC50 (IC50 for antagonists) (αvβ3 integrin [5]; cell adhesion to fibronectin): 0.0088 ± 0.0006 µM
- αvβ3 behaviour (agonist/antagonist) (αvβ3 integrin [5]): antagonist
- IC50 (α5β1 integrin [6]): 0.00105 ± 0.0003 µM
- α5β1 behaviour (agonist/antagonist) (α5β1 integrin [6]): antagonist

Compound: CCC(C)C1C(C(=O)NCc2ccc(N)cc2)=C(C)ON1C(=O)CC(=O)O (centres unmarked) [Ref C]
- IC50 (αvβ3 integrin [5]): 0.36 ± 0.07 µM
- αvβ3 IC50/EC50 (IC50 for antagonists) (αvβ3 integrin [5]; cell adhesion to fibronectin): 0.360 ± 0.070 µM
- αvβ3 behaviour (agonist/antagonist) (αvβ3 integrin [5]): antagonist
- IC50 (α5β1 integrin [6]): 1.32 ± 0.08 µM
- α5β1 IC50/EC50 (IC50 for antagonists) (α5β1 integrin [6]; cell adhesion to fibronectin): 1.320 ± 0.080 µM
- α5β1 behaviour (agonist/antagonist) (α5β1 integrin [6]): antagonist

Compound: CC1=C(C(=O)NCc2ccc(N)cc2)C(C2CCCCC2)N(C(=O)CC(=O)O)O1 (centres unmarked) [Ref D]
- IC50 (αvβ3 integrin [5]): 0.02 ± 0.006 µM
- αvβ3 IC50/EC50 (IC50 for antagonists) (αvβ3 integrin [5]; cell adhesion to fibronectin): 0.020 ± 0.006 µM
- αvβ3 behaviour (agonist/antagonist) (αvβ3 integrin [5]): antagonist
- IC50 (α5β1 integrin [6]): 1.03 ± 0.05 µM
- α5β1 IC50/EC50 (IC50 for antagonists) (α5β1 integrin [6]; cell adhesion to fibronectin): 1.030 ± 0.050 µM
- α5β1 behaviour (agonist/antagonist) (α5β1 integrin [6]): antagonist

Compound: Cc1ccccc1NC(=O)N1C(=O)CC1CC(=O)NCC(=O)O (centres unmarked) [Ref E, 2-(2-(4-Oxo-(o-tolylcarbamoyl)azetidin-2-yl)acetamido)acetic acid]
- αvβ3 IC50/EC50 (αvβ3 integrin [5]; cell adhesion to fibronectin): >1000 µM
- α5β1 IC50/EC50 (EC50 for agonists) (α5β1 integrin [6]; cell adhesion to fibronectin): 0.0129 ± 0.0006 µM
- α5β1 behaviour (agonist/antagonist) (α5β1 integrin [6]): agonist

Compound: Ac-Asp-Arg-Leu-Asp-Ser-OH (Ac-DRLDS-OH) [standard antagonist of cell adhesion mediated by αvβ3 integrin]
- αvβ3 IC50/EC50 (IC50 for antagonists) (αvβ3 integrin [5]; reference compound): 0.025 ± 0.003 µM
- αvβ3 behaviour (agonist/antagonist) (αvβ3 integrin [5]): antagonist
- α5β1 IC50/EC50 (α5β1 integrin [6]; reference compound): >1000 µM

Compound: H-Gly-Arg-Gly-Asp-Thr-Pro-OH (H-GRGDTP-OH) [standard antagonist of cell adhesion mediated by α5β1 integrin]
- αvβ3 IC50/EC50 (IC50 for antagonists) (αvβ3 integrin [5]; reference compound): 0.926 ± 0.006 µM
- αvβ3 behaviour (agonist/antagonist) (αvβ3 integrin [5]): antagonist
- α5β1 IC50/EC50 (IC50 for antagonists) (α5β1 integrin [6]; reference compound): 0.00062 ± 0.00009 µM
- α5β1 behaviour (agonist/antagonist) (α5β1 integrin [6]): antagonist
